Measured values published in ChEMBL document CHEMBL4392848, “Proline-based hydroxamates targeting the zinc-dependent deacetylase LpxC: Synthesis, antibacterial properties, and docking studies” (Bioorg Med Chem, 2019).
In brackets after ≈: the same amount, converted by molar mass.

How the values were obtained:
[1] = test system: Escherichia coli; assay: Antibacterial activity against Escherichia coli BL21(DE3) measured after 20 hrs by microdilution method; type: functional
[2] = test system: Citrobacter freundii; assay: Antibacterial activity against Citrobacter freundii assessed as diameter of inhibition zone measured after 24 hrs by agar disc diffusion method; type: functional
[3] = test system: Escherichia coli; assay: Antibacterial activity against Escherichia coli BL21(DE3) assessed as diameter of inhibition zone measured after overnight incubation by agar disc diffusion method; type: functional
[4] = test system: Klebsiella aerogenes; assay: Antibacterial activity against Enterobacter aerogenes assessed as diameter of inhibition zone measured after 24 hrs by agar disc diffusion method; type: functional
[5] = test system: Escherichia coli; assay: Antibacterial activity against Escherichia coli D22 measured after 20 hrs by microdilution method; type: functional; conditions: D22, 20 h
[6] = test system: Klebsiella oxytoca; assay: Antibacterial activity against Klebsiella oxytoca assessed as diameter of inhibition zone measured after 24 hrs by agar disc diffusion method; type: functional
[7] = test system: Pseudomonas aeruginosa; assay: Antibacterial activity against Pseudomonas aeruginosa assessed as diameter of inhibition zone measured after 24 hrs by agar disc diffusion method; type: functional
[8] = test system: Proteus vulgaris; assay: Antibacterial activity against Proteus vulgaris assessed as diameter of inhibition zone measured after 24 hrs by agar disc diffusion method; type: functional
[9] = test system: Proteus mirabilis; assay: Antibacterial activity against Proteus mirabilis assessed as diameter of inhibition zone measured after 24 hrs by agar disc diffusion method; type: functional
[10] = test system: Escherichia coli; assay: Antibacterial activity against Escherichia coli D22 assessed as diameter of inhibition zone measured after overnight incubation by agar disc diffusion method; type: functional
[11] = test system: Enterobacter cloacae; assay: Antibacterial activity against Enterobacter cloacae assessed as diameter of inhibition zone measured after 24 hrs by agar disc diffusion method; type: functional
[12] = test system: Klebsiella pneumoniae; assay: Antibacterial activity against Klebsiella pneumoniae assessed as diameter of inhibition zone measured after 24 hrs by agar disc diffusion method; type: functional
[13] = Inhibition of Escherichia coli LpxC C63A mutant using UDP-3-O-[(R)-3-hydroxymyristoyl]-N-acetylglucosamine as substrate measured after 30 mins by fluorescence based microplate assay

Compound	MIC [1]	MIC [5]	IC50 [13]	diameter of the inhibition zone (DIZ) [2]	diameter of the inhibition zone (DIZ) [3]	diameter of the inhibition zone (DIZ) [4]	diameter of the inhibition zone (DIZ) [6]	diameter of the inhibition zone (DIZ) [7]	diameter of the inhibition zone (DIZ) [8]	diameter of the inhibition zone (DIZ) [9]	diameter of the inhibition zone (DIZ) [10]	diameter of the inhibition zone (DIZ) [11]	diameter of the inhibition zone (DIZ) [12]	Ki [13]
O=C(NO)[C@H]1O[C@@H](c2ccc(C#Cc3ccc(CN4CCOCC4)cc3)cc2)[C@@H](O)[C@H]1O	> 256 µM	16 µM (≈ 7.02 µg/mL)	> 200 µM	–	<6 mm	–	–	–	–	–	13.2 mm	–	–	> 27.6 µM
O=C(NO)[C@@H]1C[C@@H](O)CN1C(=O)c1ccc(C#Cc2ccc(F)cc2)cc1	> 256 µM	256 µM (≈ 94.3 µg/mL)	> 200 µM	–	<6 mm	–	–	–	–	–	10.7 mm	–	–	> 27.6 µM
Nc1ccc(C#Cc2ccc(C(=O)N3C[C@@H](O)C[C@H]3C(=O)NO)cc2)cc1	> 256 µM	128 µM (≈ 46.8 µg/mL)	–	<6 mm	<6 mm	<6 mm	8 mm	<6 mm	<6 mm	8 mm	13 mm	<6 mm	<6 mm	–
COc1ccc(C#Cc2ccc(C(=O)N3C[C@H](O)C[C@H]3C(=O)NO)cc2)cc1	> 256 µM	64 µM (≈ 24.3 µg/mL)	–	7 mm	<6 mm	<6 mm	7 mm	<6 mm	8 mm	7 mm	9.7 mm	<6 mm	<6 mm	–
Nc1ccc(C#Cc2ccc(C(=O)N3C[C@H](O)C[C@H]3C(=O)NO)cc2)cc1	> 256 µM	128 µM (≈ 46.8 µg/mL)	–	<6 mm	<6 mm	<6 mm	7 mm	<6 mm	<6 mm	7 mm	12.3 mm	<6 mm	<6 mm	–
Nc1ccc(C#Cc2ccc(C(=O)N3CCC[C@H]3C(=O)NO)cc2)cc1	> 256 µM	128 µM (≈ 44.7 µg/mL)	–	7 mm	7.5 mm	<6 mm	7 mm	<6 mm	<6 mm	<6 mm	14.3 mm	<6 mm	<6 mm	–
O=C(NO)[C@@H]1O[C@@H](c2ccc(C#Cc3ccc(CN4CCOCC4)cc3)cc2)[C@@H](O)[C@H]1O	> 256 µM	8 µM (≈ 3.51 µg/mL)	10 µM	–	<6 mm	–	–	–	–	–	22.1 mm	–	–	1.4 µM
COc1ccc(C#Cc2ccc(C(=O)N3C[C@@H](O)C[C@H]3C(=O)NO)cc2)cc1	> 256 µM	128 µM (≈ 48.7 µg/mL)	–	8 mm	<6 mm	<6 mm	7 mm	<6 mm	9 mm	<6 mm	<6 mm	8 mm	<6 mm	–
CC1(C)O[C@@H]2[C@H](O1)[C@H](c1ccc(C#Cc3ccc(CN4CCOCC4)cc3)cc1)O[C@@H]2C(=O)NO	> 256 µM	128 µM (≈ 61.3 µg/mL)	> 200 µM	–	<6 mm	–	–	–	–	–	14.7 mm	–	–	> 27.6 µM
O=C(NO)[C@@H]1C[C@H](O)[C@H](c2ccc(C#Cc3ccc(CN4CCOCC4)cc3)cc2)O1	> 256 µM	16 µM (≈ 6.76 µg/mL)	87 µM	–	<6 mm	–	–	–	–	–	15.3 mm	–	–	12 µM
O=C(NO)[C@@H]1C[C@H](F)CN1Cc1ccc(C#Cc2ccccc2)cc1	> 256 µM	128 µM (≈ 43.3 µg/mL)	> 200 µM	–	<6 mm	–	–	–	–	–	10.7 mm	–	–	> 27.6 µM

Second part, led by results:

MIC [1]	MIC [5]	IC50 [13]	Compound	diameter of the inhibition zone (DIZ) [2]	diameter of the inhibition zone (DIZ) [3]	diameter of the inhibition zone (DIZ) [4]	diameter of the inhibition zone (DIZ) [6]	diameter of the inhibition zone (DIZ) [7]	diameter of the inhibition zone (DIZ) [8]	diameter of the inhibition zone (DIZ) [9]	diameter of the inhibition zone (DIZ) [10]	diameter of the inhibition zone (DIZ) [11]	diameter of the inhibition zone (DIZ) [12]	Ki [13]
> 256 µM	128 µM (≈ 44.7 µg/mL)	–	N[C@H]1C[C@@H](C(=O)NO)N(C(=O)c2ccc(C#Cc3ccccc3)cc2)C1	7 mm	7.5 mm	7 mm	7 mm	7 mm	<6 mm	8 mm	12.3 mm	7 mm	7 mm	–
64 µM (≈ 29.7 µg/mL)	4 µM (≈ 1.85 µg/mL)	44 µM	O=C(NO)[C@@H]1C[C@H](O)CN1C(=O)c1ccc(C#Cc2ccc(CN3CCC(O)CC3)cc2)cc1	<6 mm	15.7 mm	9 mm	<6 mm	<6 mm	<6 mm	11 mm	23.7 mm	<6 mm	<6 mm	6.1 µM
> 256 µM	64 µM (≈ 22.4 µg/mL)	> 200 µM	O=C(NO)[C@@H]1C[C@H](O)CN1C(=O)c1ccc(C#Cc2ccccc2)cc1	7 mm	<6 mm	<6 mm	7 mm	<6 mm	7 mm	7 mm	14.3 mm	<6 mm	<6 mm	> 27.6 µM
> 256 µM	128 µM (≈ 42.8 µg/mL)	> 200 µM	O=C(NO)[C@@H]1CCCN1C(=O)c1ccc(C#Cc2ccccc2)cc1	8 mm	<6 mm	<6 mm	8 mm	<6 mm	7 mm	<6 mm	12 mm	8 mm	<6 mm	> 27.6 µM
> 256 µM	64 µM (≈ 30.8 µg/mL)	17.1 µM	O=C(NO)[C@@H]1CCCN1C(=O)c1ccc(C#Cc2ccc(CN3CCS(=O)(=O)CC3)cc2)cc1	<6 mm	10.7 mm	8 mm	<6 mm	<6 mm	10 mm	9 mm	17 mm	10 mm	11 mm	2.4 µM
256 µM (≈ 115 µg/mL)	64 µM (≈ 28.7 µg/mL)	–	N[C@H]1C[C@@H](C(=O)NO)N(C(=O)c2ccc(C#Cc3ccc(CN4CCOCC4)cc3)cc2)C1	8 mm	7.8 mm	11 mm	13 mm	10 mm	<6 mm	7 mm	20 mm	<6 mm	9 mm	–
256 µM (≈ 101 µg/mL)	32 µM (≈ 12.6 µg/mL)	–	CN(C)c1ccc(C#Cc2ccc(C(=O)N3C[C@H](O)C[C@H]3C(=O)NO)cc2)cc1	8 mm	<6 mm	10 mm	8 mm	<6 mm	<6 mm	8 mm	14 mm	<6 mm	7 mm	–
> 256 µM	128 µM (≈ 44.8 µg/mL)	103 µM	O=C(NO)[C@@H]1C[C@@H](O)CN1C(=O)c1ccc(C#Cc2ccccc2)cc1	–	<6 mm	–	–	–	–	–	14 mm	–	–	14.2 µM
> 256 µM	128 µM (≈ 45.1 µg/mL)	65.9 µM	O=C(NO)[C@@H]1C[C@H](F)CN1C(=O)c1ccc(C#Cc2ccccc2)cc1	–	<6 mm	–	–	–	–	–	13.3 mm	–	–	9.1 µM
